Data: patent publication US20200393345A1, “HEPARIN-BASED BLOOD SAMPLER WITHOUT PLATELET ACTIVATION” (Radiometer Medical ApS, priority 2017, published 2020)
“Also recorded” adds a separate entry of the source. Counter-ions that a name gives are not always drawn.

Assays:
Assay type in all cases: cell-based
[1] = tested on: platelets; assay: Manual platelet count (single platelets, platelet aggregates) in heparinized blood with anti-platelet agents, hemocytometer; conditions: two concentration levels of drug, mixed 15 minutes; for Formation of platelet aggregates compared to LiHep and PicoSAM references / Number of platelet aggregates compared to EDTA / Single platelet count compared to LiHep and PicoSAM controls: venous whole blood in PICO70 samplers with heparin; for Single platelet count compared to EDTA reference: venous whole blood in PICO70 samplers with heparin 60 IU/mL (LiHep or PicoSAM)
Method: Each experiment was conducted on a separate day with blood from one voluntary donor testing one anti-platelet drug candidate. For each experiment PICO70 syringe samplers (Radiometer Medical ApS) were prepared just before sample drawing. For “LiHep” (Liquid Heparin) conditions, PICO70 samplers were emptied of the gold ball and heparin brick and 15 μl of aqueous liquid balanced heparin comprising heparin lithium (Celsus Laboratories) and heparin sodium (Celsus Laboratories) (final heparin conc. 60 IU/mL blood) and 15 μl of the solvent of the tested drug were added. For “PicoSAM” conditions, unmodified PICO70 samplers (with gold ball and heparin brick) were used and 15 μl of the solvent of the respective tested drug was added. For “LiHep xxx drug” conditions, PICO70 samplers were emptied as described for LiHep and 15 μl of liquid balanced heparin (final heparin conc. 60 IU/mL blood) and 15 μl of the dissolved tested drug were added. For “PicoSAM xxx drug” conditions, unmodified PICO70 samplers (with gold ball and heparin brick) were used and 15 μl of the dissolved tested drug was added. […] 600 μM and 6 mM) and dipyridamole (Sigma, D9766; dissolved in 1:10 or 1:100 DMSO in saline, final conc. 10 and 100 μM). An EDTA tube (BD Vacutainer with spray-coated K2EDTA, 10 ml) and duplicate samples of all conditions of PICO70 syringe samplers were filled by drawing venous blood via a butterfly needle using a sealed VTC (vented tip cap) to fill the otherwise self-aspirating PICO70 samplers with 1.5 mL venous whole blood. Samplers were inverted 8 times immediately after drawing to insure proper anticoagulation of the samples. The blood samples were mixed gently by hand (samplers without gold ball) or on a SAM mixer (Radiometer Medical ApS) for 15 minutes after drawing the sample. Mixed samples were fixed immediately with 10% formalin solution (1:1 dilution of blood in formalin) for at least 10 minutes and further diluted 1:10 in platelet dilution solution to hemolyze red blood cells (RBCs) to assessed manual platelet count using a hemocytometer. […] Single platelet counts were adjusted for dilution with liquid heparin and or dissolved drug solution to calculate single platelet concentrations.

[2] = tested on: platelets; assay: Wet mount phase-contrast images of fixed blood samples, platelet aggregation; conditions: fixed venous blood, 40x phase-contrast; eptifibatide 20 μM added to heparin
Description: Venous blood samples drawn, mixed and fixed with 10% formalin solution, as described before in Example 1 were used to prepare wet mounts on a glass slide and covered with a glass coverslip. Wet mount samples of fixed blood cells were then imaged with a Leica 750 microscope using a 40× phase-contrast air objective.

[3] = tested on: WBCs (white blood cells) and platelets; assay: Wet mount images of stained and hemolyzed blood samples; conditions: for Platelets in stained wet mount images (single, aggregated, satellinism) / WBC aggregates in stained wet mount images: PicoSAM samples, 1 μM tirofiban, 20 μM eptifibatide, 100 nM iloprost
Method: Venous blood samples were drawn and mixed as described before in Example 1 and used to prepare stained wet mounts images. Blood samples were mixed with a staining and hemolyzing agent (methylene blue and deoxycholic acid, respectively) and incubated at 47° C. in a water bath for 30 seconds. Stained and hemolyzed blood samples were then prepared in wet mount samples on a glass slide and covered with a glass coverslip. Images of stained samples were then acquired with a Leica 750 microscope using a 40× air objective in bright field mode. An image processing software (FIJI, ImageJ) was used to select regions of interest (ROIs) of representative stained WBCs from the images.

Row | Compound | Formation of platelet aggregates compared to LiHep and PicoSAM references [1] | Single platelet count compared to EDTA reference [1] | Number of platelet aggregates compared to EDTA [1] | Platelet aggregates in microscopic images [2] | Platelets in stained wet mount images (single, aggregated, satellinism) [3] | WBC aggregates in stained wet mount images [3] | Single platelet count compared to LiHep and PicoSAM controls [1] | WBC aggregation in the blood sample (leukocyte activation) ([3]; statement in the description)
1 | O=S(=O)([O-])[O-].[Mg+2] [MgSO4] | reduced the formation of platelet aggregates | – | – | – | – | – | – | –
2 | eptifibatide acetate | reduced the formation of platelet aggregates | comparable to standard EDTA anticoagulated blood | no or few aggregates | cannot be observed; also recorded: cannot be seen | single platelets but also platelet satellinism | WBC aggregates were also observed | – | –
3 | CCCCS(=O)(=O)N[C@@H](Cc1ccc(OCCCCC2CCNCC2)cc1)C(=O)O [Tirofiban, tirofiban hydrochloride monohydrate] | reduced the formation of platelet aggregates | comparable to standard EDTA anticoagulated blood | no or few aggregates | – | single platelets but also platelet satellinism | WBC aggregates were also observed | – | –
4 | O=C(O)CN(CCN(CC(=O)O)CC(=O)O)CC(=O)O [EDTA, Ethylenediaminetetraacetic acid] | – | – | – | prevents platelet activation and maintains single platelets; also recorded: cannot be seen | same results | same results | – | –
5 | OCCN(CCO)c1nc(N2CCCCC2)c2nc(N(CCO)CCO)nc(N3CCCCC3)c2n1 [Dipyridamole, dipyridamole] | – | – | – | – | – | – | slightly higher platelet number | –
6 | heparin | – | – | – | allows or even potentiates platelet aggregation; also recorded: showed platelet aggregates | – | – | – | –
7 | Clc1ccccc1CN1CCc2sccc2C1 [Ticlopidine LiHep, ticlopidine hydrochloride] | slightly reduced number of aggregates | – | – | – | – | – | – | –
8 | N=C(N)NCCC[C@H](N)C(=O)O [L-Arginine] | – | decreased number of platelets | higher number of platelet aggregates | – | – | – | slightly higher platelet count | –
9 | CC#CCC(C)[C@H](O)/C=C/[C@@H]1[C@H]2C/C(=C/CCCC(=O)O)C[C@H]2C[C@H]1O (stereo partly drawn) [Iloprost, iloprost] | reduced the formation of platelet aggregates | comparable to standard EDTA anticoagulated blood | no or few aggregates | – | single platelets, not platelet satellinism | not platelet satellinism or WBC aggregates | – | very low WBC aggregation
